Experimental data reported in patent publication US12612412B2, “Antiviral heterocyclic compounds” (Enanta Pharmaceuticals, Inc., priority 2021, dated 2026).

Tests used:
[1] = tested on: HMPV clinical isolate TN/1501/A1; assay: HMPV antiviral assay Method-B (clinical isolate TN/1501/A1 in LLC-MK2 cells, ATP-Lite readout); type: cell-based, Human metapneumovirus (HMPV); settings: human metapneumovirus, LLC-MK2, 144 h, hMPV WT1501 (clinical isolate TN/1501/A1), 6 days
Method in brief: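 LLC-MK2 cells infected in suspension with TN/1501/A1 at MOI 0.014 in serum-free medium with 2 μg/mL TPCK-trypsin (final), incubated 6 days at 37° C. Compounds tested in duplicate, 10-point 3-fold dilutions from 10 μM. Cell health read by ATP-Lite luminescence, normalised to virus-only and cells-only controls; EC50 by four-parameter logistic fit.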

[2] = tested on: genotype A, "Long" strain RSV; assay: RSV-A assay (CPE protection in Hep-2 cells, ATPlite readout); type: cell-based, Human respiratory syncytial virus (HRSV); settings: human respiratory syncytial virus, genotype A “Long” strain RSV, MOI 0.1, CPE protection, read-out: Human RSV-A (“Long”)
Method in brief: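 Compound effect on RSV-induced CPE: Hep-2 monolayers, MOI 0.1, duplicate 2-fold titrations, 5-day culture in 10% FBS DMEM. Readout is ATP-based luminescence, normalised to virus-only and no-virus controls, giving EC50.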

Row | Structure (SMILES) | EC50 [1] [nM] | EC50 [2] [nM]
1 | COc1cc(C(=O)NC[C@](O)(c2cc3c(c(-c4csc5c(F)cccc45)n2)OC[C@]3(C)C(N)=O)C2CC2)cc2cn(C3(F)CC3)nc12 [Example 604] | < 500 | < 200
2 | C[C@]1(C(N)=O)COc2c1cc([C@@](O)(CNC(=O)c1cc(OC3CC3)c3nn(C4(F)CC4)cc3c1)C(F)(F)F)nc2-c1csc2c(F)cccc12 [Example 605] | < 500 | < 200
3 | C[C@]1(C(N)=O)COc2c1cc([C@@](O)(CNC(=O)c1cc(OC3CC3)c3nn(C(F)F)cc3c1)C(F)(F)F)nc2-c1csc2c(F)cccc12 [Example 606] | < 500 | < 200
4 | C[C@]1(C(N)=O)COc2c1cc([C@@](O)(CNC(=O)c1cc(OC3CC3)c3nn(C4(F)CC4)cc3c1)C1CC1)nc2-c1csc2c(F)cccc12 [Example 607] | < 500 | < 200
5 | C[C@]1(C(N)=O)COc2c1cc([C@@](O)(CNC(=O)c1cc(F)c3nn(C4CC4)cc3c1)C1CC1)nc2-c1csc2c(F)cccc12 [Example 608] | < 500 | < 200
6 | C[C@]1(C(N)=O)COc2c1cc([C@@](O)(CNC(=O)c1cc(Cl)c3nn(C4CC4)cc3c1)C(F)(F)F)nc2-c1csc2c(F)cccc12 [Example 609] | < 500 | < 200
7 | C[C@]1(C(N)=O)COc2c1cc([C@@](O)(CNC(=O)c1cc(OCC3CC3)c3nn(C4(F)CC4)cc3c1)C(F)(F)F)nc2-c1csc2c(F)cccc12 [Example 610] | < 500 | < 200
8 | C[C@]1(C(N)=O)COc2c1cc([C@@](O)(CNC(=O)c1cc(OCC(F)F)c3nn(C4(F)CC4)cc3c1)C(F)(F)F)nc2-c1csc2c(F)cccc12 [Example 611] | < 500 | < 200
9 | C[C@]1(C(N)=O)COc2c1cc([C@@](O)(CNC(=O)c1cc(OCCF)c3nn(C4(F)CC4)cc3c1)C(F)(F)F)nc2-c1csc2c(F)cccc12 [Example 612] | < 500 | < 200
10 | COc1cc(C(=O)NC[C@](O)(c2cc3c(c(-c4cc(Cl)c(F)cc4F)n2)OC[C@]3(C)C(N)=O)C(F)(F)F)cc2cn(C3(F)CC3)nc12 [Example 613] | < 500 | < 200
11 | COc1cc(C(=O)NC[C@](O)(c2cc3c(c(-c4cc(Cl)c(F)cc4F)n2)OC[C@]3(C)C(N)=O)C(F)(F)F)cc2cn(C(F)F)nc12 [Example 614] | > 500 | < 200
12 | C[C@]1(C(N)=O)COc2c1cc([C@@](O)(CNC(=O)c1cc(OC3CC3)c3nn(C4(F)CC4)cc3c1)C(F)(F)F)nc2-c1cc(Cl)c(F)cc1F [Example 615] | < 500 | < 200

Continued, values first:

Row | EC50 [1] [nM] | EC50 [2] [nM] | Structure (SMILES)
13 | < 500 | < 200 | C[C@]1(C(N)=O)COc2c1cc([C@@](O)(CNC(=O)c1cc(OCC3CC3)c3nn(C4(F)CC4)cc3c1)C(F)(F)F)nc2-c1cc(Cl)c(F)cc1F [Example 616]
14 | < 500 | < 200 | C[C@]1(C(N)=O)COc2c1cc([C@@](O)(CNC(=O)c1cc(OCC(F)F)c3nn(C4(F)CC4)cc3c1)C(F)(F)F)nc2-c1cc(Cl)c(F)cc1F [Example 617]
15 | < 500 | < 200 | C[C@]1(C(N)=O)COc2c1cc([C@@](O)(CNC(=O)c1cc(OCCF)c3nn(C4(F)CC4)cc3c1)C(F)(F)F)nc2-c1cc(Cl)c(F)cc1F [Example 618]
16 | < 500 | < 200 | C[C@]1(C(N)=O)COc2c1cc([C@@](O)(CNC(=O)c1cc(Cl)c3nn(C4CC4)cc3c1)C(F)(F)F)nc2-c1cc(Cl)c(F)cc1F [Example 619]
17 | < 500 | < 200 | COc1cc(C(=O)NC[C@](O)(c2cc3c(c(-c4cc(Cl)c(F)cc4F)n2)OC[C@]3(C)C(N)=O)C(F)(F)F)cc2cc(Cl)c(C)nc12 [Example 620]
18 | < 500 | < 200 | COc1cc(C(=O)NC[C@](O)(c2cc3c(c(-c4cc(Cl)c(F)cc4F)n2)OC[C@]3(C)C(N)=O)C(F)(F)F)cc2cc(Br)cnc12 [Example 621]
19 | < 500 | < 200 | C[C@]1(C(N)=O)COc2c1cc([C@@](O)(CNC(=O)c1cc(Cl)c3nn(C4CC4)cc3c1)C1CC1)nc2-c1csc2c(F)cccc12 [Example 622]
